{"source": "paper PMC9965590", "about": "“Development of Computational In Silico Model for Nano Lipid Carrier Formulation of Curcumin” (Molecules, 2023)", "key": {"[1]": {"assay": "Actual solubility of curcumin in lipids (laboratory experiment)", "assay_type": "physicochemical", "source_text": "Table 2 Predicted versus actual results of curcumin solubility in different lipids. | column: Actual Solubility (mg/g)"}, "[2]": {"assay": "In vitro drug release (dialysis bag, phosphate buffer pH 6.8, 37 °C)", "assay_type": "physicochemical", "description": "The in vitro drug release research was conducted at 37 °C for 24 h in a phosphate buffer (pH 6.8).\nThe dialysis bag’s molecular weight threshold of 12–14 KDa was used to determine the in vitro drug release from the formulations [35, 82]. […] Regularly, new dissolution medium samples were taken from the dissolution medium and replaced. A volumetric flask filled with 10 Ml of methanol was treated with 1 mL of the filtrate after it was filtered through Whatman filter paper No. 1. As needed, additional dilutions were made. A spectrophotometric technique was used to analyze the materials. Calculations were made with the Korsmeyer and Peppas model and the PCP Disso Version 2.08 programmed [83, 84, 85, 86, 87, 88] to determine the time needed for 50 and 85% drug release, respectively."}, "[3]": {"assay": "In vitro gut permeation study", "assay_type": "in vitro ADME", "conditions": "after 8 h", "protocol": "The experimental protocol was approved by the Institutional Animal Ethical Committee (IAEC) with approval number CPCSEA/IAEC/JLS/16/9/21/13. Experiments on a fasted Wistar rat’s (weighing 250–300 g) small intestine were conducted in a laboratory setting. An intestinal segment was removed from a dead rat after euthanasia using CO2 inhalation and it was cut into lengths of 6–7 cm. […] In a beaker heated to 37 °C, the sac was submerged in an oxygenated Krebs Ringer solution (20 mL). The sink was maintained by removing and replacing aliquots of 1 mL every 0.5, 1, 1.5, 2, and 8 h with an equivalent volume of warm Krebs Ringer solution heated to 37 °C. Each aliquot’s medication concentration was measured using HPLC (n = 3). The HPLC system is equipped through a Shimadzu LC-10AD VP pump, a C18 Agilent column (Inertsil, 150 mm × 4.66 mm, […]), and a flow rate of 1 mL/min; the mobile phase has been degassed. It is made up of an acetonitrile, water, and methanol (50:10:40) ratio. The detector wavelength was set at 425 nm. The injection volume was 10 µL. The samples were measured after diluting suitably with methanol. Each formulation’s flow and permeability coefficients were calculated.\nPapp(cm/sec)=(DQ/dt)(AxCO)"}}, "data": [{"smiles": "COc1cc(/C=C/C(=O)CC(=O)/C=C/c2ccc(O)c(OC)c2)ccc1O", "note": "[curcumin, Curcumin]", "values": [{"measurement": "Actual Solubility", "setting": "[1]; in liquid lipid Castor oil", "value": "3.52 ± 0.52", "unit": "mg/g"}, {"measurement": "Actual Solubility", "setting": "[1]; in liquid lipid Corn oil", "value": "1.06 ± 0.15", "unit": "mg/g"}, {"measurement": "Actual Solubility", "setting": "[1]; in liquid lipid Grape seeds oil", "value": "0.59 ± 0.64", "unit": "mg/g"}, {"measurement": "Actual Solubility", "setting": "[1]; in liquid lipid Oleic acid", "value": "4.61 ± 0.13", "unit": "mg/g"}, {"measurement": "Actual Solubility", "setting": "[1]; in liquid lipid Olive oil", "value": "3.48 ± 0.34", "unit": "mg/g"}, {"measurement": "Actual Solubility", "setting": "[1]; in liquid lipid Soybean oil", "value": "1.36 ± 0.26", "unit": "mg/g"}, {"measurement": "Actual Solubility", "setting": "[1]; in solid lipid Cetosteryl", "value": "2.06 ± 0.13", "unit": "mg/g"}, {"measurement": "Actual Solubility", "setting": "[1]; in solid lipid GMS", "value": "3.58 ± 0.03", "unit": "mg/g"}, {"measurement": "Actual Solubility", "setting": "[1]; in solid lipid Palmitic acid", "value": "3.28 ± 0.06", "unit": "mg/g"}, {"measurement": "Actual Solubility", "setting": "[1]; in solid lipid Stearic acid", "value": "2.62 ± 0.12", "unit": "mg/g"}, {"measurement": "Actual Solubility", "setting": "[1]; in solid lipid Tri Palmitin", "value": "3.25 ± 0.30", "unit": "mg/g"}, {"measurement": "time to dissolve 50% of the curcumin", "setting": "[2]", "value": "more than 24 h"}, {"measurement": "Papp at 8 h", "setting": "[3]; Wistar, rat gut, mucosal to serosal", "value": 4.88, "unit": "×10⁻⁶ cm/s"}, {"measurement": "permeability through the rat gut", "setting": "[3]", "value": "6.83 ± 1.53", "unit": "mcg/cm^2/h"}, {"measurement": "permeability and penetration release rate in the intestine and the gut", "setting": "[3]; as printed in Conclusions", "value": "6.83 ± 1.53", "unit": "mg/cm^2/h"}]}]}
